The target of one test is T1, 14-3-3γ (Homo sapiens, UniProt P61981).
T1 construct: His-tagged full-length 14-3-3σ and 14-3-3γ were kindly provided by
T1 sequence (P61981 1-247): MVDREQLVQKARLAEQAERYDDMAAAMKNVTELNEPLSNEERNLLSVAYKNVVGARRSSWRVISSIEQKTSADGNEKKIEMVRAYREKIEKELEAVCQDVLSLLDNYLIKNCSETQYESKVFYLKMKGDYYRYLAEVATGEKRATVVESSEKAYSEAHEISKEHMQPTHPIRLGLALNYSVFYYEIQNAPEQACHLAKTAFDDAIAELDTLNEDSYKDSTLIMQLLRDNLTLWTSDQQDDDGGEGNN
As to the kind of experiment: Fluorescence anisotropy assay, titration of 14-3-3γ to labeled peptide. The class given is binding. Conditions: ratio of KD values from fluorescence anisotropy.

In a further test the target is BiExoS [change] peptide. In words: fluorescence polarisation. For orientation: In fluorescence polarisation assays a small probe gives low polarisation when free and higher when bound to something large.
A further test has as its system T14-3-3. As to the kind of experiment: Fluorescence anisotropy assay, titration of T14-3-3 to labeled peptides. The class given is binding. The following applies: Supplementary Table 1; unphosphorylated peptide, cf. Supplementary Fig. 7. The protocol:
14-3-3 was titrated in a 2-fold dilution series to 10 nM of fluorescently labeled peptide in coacervate buffer (20 mM HEPES, 100 mM KCl, pH 7.5) supplemented with 0.1% (v/v) of Tween 20 and 1 mg/mL of bovine serum albumin (BSA) to prevent aspecific hydrophobic interactions. Dilution series were prepared in low volume, non-binding polystyrene 384-well plates (Corning 4514 Black Round Bottom 384-well plates). Measurements were performed directly after plate preparation using a Tecan Spark plate reader at room temperature. The following settings were used: excitation 485 ± 20 nm; emission: 535 ± 25 nm; mirror: Dichroic 510; number of flashes: 30; integration time: 40 µs; settle time: 1 ms; gain: optimal; and Z-position: calculated from well. Wells containing only the labeled peptide were used to set as G-factor at 35 mAU. All data were analyzed using GraphPad Prism (version 10.0.3) and fitted using a four-parameter logistic model (4PL) to determine binding affinities (KD). All results are based on triplicates, with the mean and standard error determined by GraphPad.

In the case of `CC(C)C[C@H](NC(=O)[C@H](CO)NC(=O)CNC(=O)[C@H](CCC(=O)O)NC(=O)[C@H](CO)NC(=O)[C@H](CO)NC(=O)[C@@H]1CCCN1C(=O)[C@H](CO)NC(=O)[C@H](CO)NC(=O)[C@@H](NC(=O)[C@H](CC(N)=O)NC(=O)[C@H](Cc1ccccc1)NC(=O)[C@@H](NC(=O)[C@H](Cc1ccccc1)NC(=O)[C@H](C)NC(=O)[C@H](Cc1c[nH]cn1)NC(=O)[C@@H]1CCCN1C(=O)[C@@H](NC(=O)[C@H](COP(=O)(O)O)NC(=O)[C@H](Cc1ccc(O)cc1)NC(=O)[C@H](CCCNC(=N)N)NC(=O)[C@H](Cc1c[nH]cn1)NC(=O)[C@H](CCC(N)=O)NC(=O)CCCCCNC(=S)Nc1ccc2c(c1)C(=O)OC21c2ccc(O)cc2Oc2cc(O)ccc21)[C@@H](C)O)[C@@H](C)O)[C@@H](C)O)C(=O)N[C@@H](CO)C(=O)N[C@@H](CCC(N)=O)C(=O)N[C@@H](CCCNC(=N)N)C(=O)N[C@@H](CCC(N)=O)C(=O)N[C@@H](CCCNC(=N)N)C(=O)N[C@@H](CO)C(=O)N[C@H](C(=O)N[C@@H](COP(=O)(O)O)C(=O)N[C@H](C(=O)N1CCC[C@H]1C(=O)N[C@@H](CC(N)=O)C(=O)N[C@H](C(=O)N[C@@H](Cc1c[nH]cn1)C(N)=O)C(C)C)[C@@H](C)O)[C@@H](C)O` [FITC-c-Raf pS], the “difference in bulk affinity of the peptide for the two isoforms (14-3-3σ vs 14-3-3γ)” value on 14-3-3γ turned out to be 40 fold.

As a reminder, the Kd is the concentration at which binding is half-saturated. Lower therefore signals tighter binding. Regarding “His-tagged full-length 14-3-3γ (from UniProt P61981 1-247) (natural protein)”, the Kd with BiExoS [change] peptide stood at 0.059 µM.

On to “FITC-Ahx-QHRYSTPHAFTFNTSSPSSEGSLSQRQRSTSTPNVH-Ac [c-Raf S233/S259, unphosphorylated FITC-labeled c-Raf S233/S259 peptide]”, for which the “Binding mode to 14-3-3” value in the test on T14-3-3 was “No binding”.

B1: His-tagged full-length 14-3-3σ (natural protein)
chain: MERASLIQKAKLAEQAERYEDMAAFMKGAVEKGEELSCEERNLLSVAYKNVVGGQRAAWRVLSSIEQKSNEEGSEEKGPEVREYREKVETELQGVCDTVLGLLDSHLIKEAGDAESRVFYLKMKGDYYRYLAEVATGDDKKRIIDSARSAYQEAMDISKKEMPPTNPIRLGLALNFSVFHYEIANSPEEAISLAKTTFDEAMADLHTLSEDSYKDSTLIMQLLRDNLTLWTADNAGEEGGEAPQEPQS
modifications: in the coacervate experiments labelled with Cy5 or DyLight 405 (NHS ester, aspecific)
Molecule B1 registered a Kd in the test with BiExoS [change] peptide of 23 µM.

Source of the values: paper PMC11213860, “Competitive protein recruitment in artificial cells” (Communications Chemistry, 2024).
